Legend:
[1] = test system: HeLa cells; test: In vitro transfection of HeLa cells, luciferase activity; format: cell-based, human; details: charge ratios 1.0 to 10.0 nmol lipid/μg DNA
Method: This study was carried out at 4 different charge ratios: 1.0 or 4.0 or 6.0 or 10.0 nmol of lipid/μg of DNA. Each of these conditions was tested with and without fetal calf serum (A+ or − Serum a))
Culture of the cells: HeLa cells (American Type Culture Collection (ATCC) Manassas, Va., USA) derived from a human cervical epithelium carcinoma, were cultured in the presence of a medium of the MEM (“minimum essential medium”) type with addition of 2 mM L-glutamine, 50 units/ml of penicillin, and 50 units/ml of streptomycin. The medium and the additives were obtained from Gibco/BRL Life Technologies/InvitroGen (Gaithersburg, Md., USA). The cells were cultured in flasks at 37° C. and at 5% carbon dioxide in an incubator. […]
An aliquot of 10 μl of supernatant of the lysate centrifuged (12,000×g) for 5 minutes at 4° C. was measured with the Wallac Victor2 luminometer (1420 Multilabel counter).
The luciferase activity was assayed by the emission of light in the presence of luciferin, of coenzyme A and of ATP for 10 seconds and expressed relative to 2000 treated cells. The luciferase activity was thus expressed as Relative Light Unit (“RLU”) and normalized with the concentration of proteins in the sample obtained using a Pierce BCA kit (Rockford, Ill., USA).

[2] = test system: DNA; test: Ethidium bromide fluorescence test of DNA compaction and release in acidic medium; format: physicochemical; details: for variation in fluorescence over time (EtBr) / release of DNA over time (increase in EtBr fluorescence): pH 5, 37° C.; for variation in fluorescence over time (EtBr): 0.4 nmol lipid/pg of DNA, DNA not completely compacted; for release of DNA over time (increase in EtBr fluorescence): 1.7 and 6.0 nmol lipid/μg of DNA, complete compaction
Method: This was easily shown by a fluorescence test with ethidium bromide (EtBr): the absence of fluorescence reflects the absence of free DNA, that means that the DNA was compacted.
The DNA was brought into contact with increasing quantities of control cationic lipid or of acid-sensitive compound A Syn or Trans, by mixing an equal volume of lipid solutions of different titers with the DNA solutions. Samples of 800 μl of DNA complexes having a concentration of […] were thus prepared in a sodium chloride solution at 150 mM with increasing quantities of control cationic lipid or of acid-sensitive compound A Syn or Trans.
At time t=0, 200 μl of buffer having a concentration of 0.1 mol/l at pH 5 were added to these samples and the samples were stored in an oven at 37° C. The fluorescence with ethidium bromide (EtBr) was measured over time (measurement at 20° C.) using a FluoroMax-2 (Jobin Yvon-Spex), with excitation and emission wavelengths of 260 nm and 590 nm respectively. The slit widths for excitation and for emission were set at 5 nm. The fluorescence value was recorded after addition of 3 μl of ethidium bromide at 1 g/l per ml of DNA/cationic lipid or DNA/acid-sensitive compound solution (at 0.01 mg of DNA/ml).

## CCCCCCCCCCCCCCCCCCN(CCCCCCCCCCCCCCCCCC)C(=O)CCCOC1OCC(CNC(=O)CNCCCNCCCCNCCCN)O1 (stereo not drawn) [Compound A Syn, 4-{4-[(2-{3-[4-(3-amino-propylamino)butylamino]propyl-amino}acetylamino)methyl]-[1,3]dioxolan-2-yloxy}-N,N-dioctadecylbutyramide tetraacetate]
[1]
  transfection activity: high transfection activity
[2]
  variation in fluorescence over time (EtBr): no significant variation in fluorescence
  release of DNA over time (increase in EtBr fluorescence): released the DNA over time
[2]; pH 5 and 37° C.
  time of release of DNA after the addition of acid: a few hours

## CCCCCCCCCCCCCCCCCCN(CCCCCCCCCCCCCCCCCC)C(=O)CNC(=O)CNCCCNCCCCNCCCN [control cationic lipid, H2N—(CH2)3—NH—(CH2)4—NH—(CH2)3—NH—CH2—CO-Gly-N[(CH2)17—CH3]2, reference compound]
[1]
  transfection activity: high transfection activity
[2]
  variation in fluorescence over time (EtBr): no significant variation in fluorescence
  release of DNA over time (increase in EtBr fluorescence): not the case

Source: patent US7641914B2, “Acid-sensitive compounds, their preparation and uses” (Gencell, S.A., priority 2000, dated 2010)
